From article PMC6747015, “Structure–function study of a novel inhibitor of the casein kinase 1 family in Arabidopsis thaliana” (Plant Direct, 2019)

Tests used:
CCA1:LUC seedlings = assay: Bioluminescence-based circadian period lengthening in CCA1:LUC seedlings; assay type: in vivo, Arabidopsis thaliana
Protocol: Bioluminescence‐based circadian rhythms of CCA1:LUC plants treated with small molecules were analyzed by auto‐luminescence detection (Churitsu CL96) as described previously (Uehara et al., 2019). Period length was automatically calculated as previously described (Kamioka et al., 2016).
To estimate CK1 inhibitor activity in vivo, we choose to measure circadian period‐lengthening activity in Arabidopsis seedlings. The assay was made more efficient by monitoring the circadian period using a clock reporter plant line (CCA1:LUC) and an automated luminometer. These tools can be used to measure the circadian period with high confidence, and estimates of in vivo CK1 inhibitor activity are quantitative (Uehara et al., 2019). Four‐day‐old CCA1:LUC seedlings grown under 12‐hr light/12‐hr dark conditions were treated with IC261, PF‐670462, and PHA767491 at different concentrations, and seedling luminescence was monitored under constant light conditions. Dimethyl sulfoxide (DMSO), the solvent used for all of the CK1 inhibitors, was used as a control. IC261 lengthened the circadian period of CCA1:LUC seedlings in a dose‐dependent manner (Figure 1d), with a 2‐hr period lengthening at 500 µM. PF‐670462 and PHA767491 treatment concentrations also correlated with period lengthening (Figure 1e and f). The concentrations required for 2‐hr lengthening effects were 90 µM for PF‐670472 and 47 µM for PHA767491, which was consistent with previous work (Uehara et al., 2019). Thus, PHA767491 was the strongest in vivo CK1 inhibitor among the three inhibitors tested.

MPK family = assay: AMI‐329 bead binding with AMI‐331 competitor, MPK family; set-up: species or system Arabidopsis thaliana
Protocol: (§1) Screening for proteins bound to AMI‐329 beads was done by a method similar to what has previously been described (Uehara et al., 2019). Briefly, two‐week‐old seedlings grown under LD conditions were harvested at time points ZT2, ZT6, ZT9, and ZT17, and stored at −80°C. Proteins from the frozen plant samples were incubated with 0, 5, or 50 µM of AMI‐331 at 4°C for 30 min with rotary mixing. Two technical replicates were used for each experiment. PBS‐washed AMI‐329 beads were added to the protein samples and gently rotated at 4°C for 1 hr. AMI‐329 bead resins were washed with bead buffer (Uehara et al., 2019) six times. The washed resins were suspended in SDS sample buffer and boiled for 8 min. Protein samples were in‐gel‐digested as previously described (Uehara et al., 2019). Peptides were analyzed with a Q Exactive hybrid quadrupole‐orbitrap mass spectrometer (Thermo Fisher Scientific), as described previously (Uehara et al., 2019). MS/MS spectra were interpreted, and peak lists were generated using Proteome Discoverer 2.0.0.802 (Thermo Fisher Scientific). Searches were performed using SEQUEST (Thermo Fisher Scientific) against the Arabidopsis thaliana (TAIR TaxID = 3,702) peptide sequence database. […]
To examine other potential targets of AMI‐331, we analyzed the spectra for PHA767491 target proteins (Uehara et al., 2019). […]

CKL6 (AT4G28540) = biological target: T1, CKL6 (AT4G28540) (Arabidopsis thaliana, UniProt Q8LPJ1); assay: AMI‐329 bead binding with AMI‐331 competitor, CKL6
T1 construct: from tissue; host or cells: Arabidopsis seedlings, two weeks old
Protocol: as §1, with “2019).” for “2019). MS/MS spectra were interpreted, and peak lists were generated using Proteome Discoverer 2.0.0.802 (Thermo Fisher Scientific). Searches were performed using SEQUEST (Thermo Fisher Scientific) against the Arabidopsis thaliana (TAIR TaxID = 3,702) peptide sequence database.”
However, another possible mechanism for the strong AMI‐331 biological activity in vivo is that it targets proteins other than the CK1 family for period lengthening. […] It is noteworthy that kinase AT4G08800 is very similar to the CKL family, but the ATP‐binding pocket of mammalian CK1 as determined by its crystal structure (Shinohara et al., 2017) was absent from AT4G08800, as shown in an Araport 11 model (https://www.araport.org). […]

[1] = CCA1:LUC seedlings, constant light

T1 sequence (Q8LPJ1 whole entry): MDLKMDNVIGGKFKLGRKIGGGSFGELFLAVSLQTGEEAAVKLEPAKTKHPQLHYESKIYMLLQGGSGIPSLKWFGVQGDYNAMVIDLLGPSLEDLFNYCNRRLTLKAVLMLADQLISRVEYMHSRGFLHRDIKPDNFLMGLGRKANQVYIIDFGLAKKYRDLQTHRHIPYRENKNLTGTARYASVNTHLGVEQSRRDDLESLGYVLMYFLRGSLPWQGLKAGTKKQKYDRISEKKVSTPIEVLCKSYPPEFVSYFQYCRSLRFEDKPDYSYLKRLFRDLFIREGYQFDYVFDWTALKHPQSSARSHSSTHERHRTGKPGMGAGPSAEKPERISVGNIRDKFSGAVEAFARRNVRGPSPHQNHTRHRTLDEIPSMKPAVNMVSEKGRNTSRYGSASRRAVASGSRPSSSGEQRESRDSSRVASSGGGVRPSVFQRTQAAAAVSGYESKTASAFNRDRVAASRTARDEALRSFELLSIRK

C#CCn1c2c(c(Br)c1-c1ccncc1)C(=O)NCC2.Cl [AMI‐331]
Concentration required for 2‐hr period lengthening (2hLC) (CCA1:LUC seedlings; [1]): 0.4 µM
Concentration required for 5‐hr period lengthening (5hLC) (CCA1:LUC seedlings; [1]): 1.4 µM
Concentration that significantly lengthens the circadian clock period (CCA1:LUC seedlings; in vivo): below 1 µM
Spectra on AMI‐329 beads relative to 0 µM sample (MPK family; 5 µM AMI‐331 as competitor): 13%–85%
Spectra on AMI‐329 beads relative to 0 µM sample (MPK family; 50 µM AMI‐331 as competitor): 0%–31%
Spectra (PSMs) AMI‐329 beads bound (CKL6 (AT4G28540); competitor AMI‐331 5 µM): 1 PSMs
Spectra (PSMs) AMI‐329 beads bound (CKL6 (AT4G28540); competitor AMI‐331 50 µM): 0 PSMs
